From PMC7397056, “Design, Facile Synthesis and Characterization of Dichloro Substituted Chalcones and Dihydropyrazole Derivatives for Their Antifungal, Antitubercular and Antiproliferative Activities” (Molecules, 2020)
Values after ≈ are worked out from the molar mass of the structure shown. Read-outs that look alike come from different tables or passages of the source.

Assays:
[1] = test system: prostate cancer cell lines (DU-145); experiment: Antiproliferative activity, MTT assay; format: cell-based; conditions: Homo sapiens, 48 h, mean ± SD (n = 3)
Procedure: (§1) The antiproliferative activity of the compounds was determined their IC50 values. Methotrexate (Mtx; positive control) was used as a reference standard for comparing the antiproliferative activity of the target compounds. The MTT (3-(4,5-dimethylthiazol-2-yl)-2,5-diphenyl tetrazolium bromide) assay was based on the reduction of the soluble MTT (0.5 mg mL^−1, 100 µL) into a blue-purple formazan product, mainly by the activity of mitochondrial reductase enzymes inside the living cells. The prostate cancer cell lines, DU-145 cells, were cultured in Dulbecco’s Modified Eagle Medium (DMEM) media at 37 °C and humidified at 5% CO2. Stock solutions of the test compounds (17–46) were prepared in 0.1% DMSO followed by dilution with sterile water to obtain the desired final concentrations. Briefly, the cells were placed on 96-well plates at 100 µL total volume with the density of 1 × 10^4 cells per well and were allowed to adhere for 24 h. Then the medium was replaced with fresh media containing different dilutions of the test compounds and incubated for additional 48 h at 37 °C in DMEM with 10% fetal bovine serum (FBS) medium. Subsequently, the medium was replaced with 90 μL of fresh DMEM without FBS. The above wells were treated with 10 μL of MTT reagent (5 mg/mL of stock solution in DMEM without FBS) and incubated at 37 °C for 3–4 h. The formed blue formazan crystals were dissolved in 200 μL of DMSO. The optical density was determined at 570 nm using a micro plate reader. The assay was performed in triplicate for three independent experiments. The same experimentation was also done to confirm that the DMSO (negative control) had no effect in the study. The results had good reproducibility between replicate wells with standard errors below 10%. The antiproliferative activity results measured as IC50 values in µg/mL were converted and expressed in µM. Additionally, the cytotoxic activity of the compounds was also measured employing the same protocol discussed above to assess their toxicity on normal human cell lines (L02).

[2] = test system: Candida tropicalis (ATCC-1369); experiment: Antifungal activity, serial tube dilution method (MIC); conditions: for MIC: Candida tropicalis, ATCC1369, 18 h, read-out: Antifungal activity MIC, C. tropicalis, serial tube dilution, 37 °C, 18 h, average of three
[3] = Cytotoxic activity on normal cells, MTT assay; format: cell-based; conditions: L02 cells (normal human cell line)
Procedure: as §1

[4] = test system: Mycobacterium tuberculosis H37Rv; experiment: Antitubercular activity, broth dilution assay (MIC); format: cell-based; conditions: for MIC: Middlebrook 7H9 broth, 37 °C, 21 days
[5] = test system: Aspergillus niger (ATCC-6275); experiment: Antifungal activity, serial tube dilution method (MIC); conditions: for MIC: Aspergillus niger; for Antifungal activity MIC, A. niger: serial tube dilution, 37 °C, 18 h, average of three
[6] = Mycobacterium tuberculosis, H37RV, 504 h
[7] = ratio of MICs vs pyrazinamide (MIC 25.34 µM)
[8] = ATCC6275, 18 h, read-out: Antifungal activity MIC, A. niger, serial tube dilution, 37 °C, 18 h, average of three
[9] = ATCC6275, read-out: Antifungal MIC, Aspergillus niger

SMILES | IC50 [1] [µM] | MIC [2] [µM] | fold improvement in activity over compound 17 (CH3 replaced with CF3), Candida tropicalis ([2]; comparator compound 17) [fold] | melting point [°C] | IC50 at 48 h [3] [µg/mL] | MIC [4, 6] [µM] | fold better activity than the standard pyrazinamide [4, 7] | MIC [5, 8] [µM] | fold improvement in activity over compound 17 (CH3 replaced with CF3), Aspergillus niger ([5]; comparator compound 17) [fold] | MIC [4] [µM] | fold less activity than pyrazinamide [4, 7] [fold] | Antifungal activity MIC, A. niger [5] [µM] | MIC [5, 9] [µg/mL] | fold reduction in antitubercular activity compared with chalcone 15 ([4]; comparator compound 15) [fold] | Antifungal activity MIC, C. tropicalis ([2]; serial tube dilution, 37 °C, 18 h, average of three) [µM]
FC(F)(F)c1ccc(C2CC(c3ccc(Cl)c(Cl)c3)=NN2c2ccccc2)cc1 (stereo not drawn) [Compound 24, 3-(3,4-dichlorophenyl)-1-phenyl-5-(4-trifluoromethylphenyl)-4,5-dihydro-1H-pyrazole] | 257 ± 2 | 9.18 (≈ 4 µg/mL) | 4.6 | 125 | > 75 | 3.67 (≈ 1.6 µg/mL) | sevenfold | 9.18 | 4.6 | – | – | – | – | – | –
O=C(/C=C/c1ccccc1Cl)c1ccc(Cl)c(Cl)c1 [Compound 6] | 141 ± 2 | 51.3 (≈ 16 µg/mL) | – | – | > 50 | 20.1 (≈ 6.25 µg/mL) | – | 25.7 | – | – | – | – | – | – | –
Clc1ccc(C2CC(c3ccc(Cl)c(Cl)c3)=NN2c2ccccc2)cc1 (stereo not drawn) [Compound 20, 3-(3,4-dichlorophenyl)-1-phenyl-5-(4-chlorophenyl)-4,5-dihydro-1H-pyrazole] | 149 ± 2 | 39.8 (≈ 16 µg/mL) | – | 261 | > 75 | – | – | 28.8 | – | 31.11 (≈ 12.5 µg/mL) | 1.2 | 19.91 | – | – | –
Fc1ccc(C2CC(c3ccc(Cl)c(Cl)c3)=NN2c2ccccc2)cc1 (stereo not drawn) [Compound 18, 3-(3,4-dichlorophenyl)-1-phenyl-5-(4-fluorophenyl)-4,5-dihydro-1H-pyrazole] | 119 ± 2 | 41.5 (≈ 16 µg/mL) | – | 195 | > 75 | – | – | 28.8 | – | 32.44 (≈ 12.5 µg/mL) | 1.2 | 20.76 | 20.8 | – | –
O=C(/C=C/c1ccc(F)cc1F)c1ccc(Cl)c(Cl)c1 [Compound 7, (E)-1-(3,4-dichlorophenyl)-3-(2,4-difluorophenyl)prop-2-en-1-one] | 31 ± 2 | 51.1 (≈ 16 µg/mL) | – | 265 | > 50 | 9.96 (≈ 3.12 µg/mL) | – | 25.5 | – | – | – | – | – | – | –
O=C(/C=C/c1cccnc1)c1ccc(Cl)c(Cl)c1 [Compound 12, (E)-1-(3,4-dichlorophenyl)-3-(pyridin-3-yl)prop-2-en-1-one] | 256 ± 2 | 14.4 (≈ 4.01 µg/mL) | – | 191 | > 50 | 22.6 (≈ 6.27 µg/mL) | – | 28.9 | – | – | – | – | – | – | –
Clc1ccc(C2=NN(c3ccccc3)C(c3ccc[nH]3)C2)cc1Cl (stereo not drawn) [Compound 30, 3-(3,4-dichlorophenyl)-1-phenyl-5-(1H-pyrrol-2-yl)-4,5-dihydro-1H-pyrazole] | 84 ± 2 | 44.9 (≈ 16 µg/mL) | – | 171 | > 75 | 70.2 (≈ 25 µg/mL) | – | 44.9 | – | – | – | – | – | 1.5 | –
Cc1ccc(C2CC(c3ccc(Cl)c(Cl)c3)=NN2c2ccccc2)cc1 (stereo not drawn) [Compound 17, 3-(3,4-dichlorophenyl)-1-phenyl-5-(p-tolyl)-4,5-dihydro-1H-pyrazole] | 351 ± 2 | 42 (≈ 16 µg/mL) | – | 168 | > 75 | 262 (≈ 100 µg/mL) | – | 42 | – | – | – | – | – | – | –
O=C(/C=C/c1ccc(Cl)cc1)c1ccc(Cl)c(Cl)c1 [Compound 5] | 147 ± 2 | 51.3 (≈ 16 µg/mL) | – | – | > 50 | 80.2 (≈ 25 µg/mL) | – | 25.7 | – | – | – | – | – | – | –
O=C(/C=C/c1ccc(Cl)cc1Cl)c1ccc(Cl)c(Cl)c1 [Compound 8, (E)-1-(3,4-dichlorophenyl)-3-(2,4-dichlorophenyl)prop-2-en-1-one] | 254 ± 2 | 46.2 (≈ 16 µg/mL) | – | 299 | > 50 | 18.1 (≈ 6.25 µg/mL) | – | 23.1 | – | – | – | – | – | – | –
Fc1ccccc1C1CC(c2ccc(Cl)c(Cl)c2)=NN1c1ccccc1 (stereo not drawn) [Compound 19, 3-(3,4-dichlorophenyl)-1-phenyl-5-(2-fluorophenyl)-4,5-dihydro-1H-pyrazole] | 327 ± 2 | 41.5 (≈ 16 µg/mL) | – | 149 | > 75 | – | – | 20.8 | – | 32.44 (≈ 12.5 µg/mL) | 1.2 | – | 20.8 | – | –
OC(Cn1cncn1)(Cn1cncn1)c1ccc(F)cc1F [Fluconazole, reference compound] | – | 19.6 (≈ 6 µg/mL) | – | – | – | – | – | 26.1 | – | – | – | – | – | – | –
O=C(/C=C/c1ccc[nH]1)c1ccc(Cl)c(Cl)c1 [Compound 15, (E)-1-(3,4-dichlorophenyl)-3-(1H-pyrrol-2-yl)prop-2-en-1-one] | 94 ± 2 | 60.4 (≈ 16.1 µg/mL) | – | 238 | > 50 | 47.2 (≈ 12.6 µg/mL) | – | 60.4 | – | – | – | – | – | – | –
O=C(/C=C/c1ccc(F)cc1)c1ccc(Cl)c(Cl)c1 [Compound 3] | 176 ± 2 | 54.2 (≈ 16 µg/mL) | – | – | > 50 | 84.7 (≈ 25 µg/mL) | – | 54.2 | – | – | – | – | – | – | –
Cc1ccc(/C=C/C(=O)c2ccc(Cl)c(Cl)c2)cc1 [Compound 2] | 432 ± 2 | 110 (≈ 32 µg/mL) | – | – | > 50 | 343 (≈ 100 µg/mL) | – | 110 | – | – | – | – | – | – | –
O=C(/C=C/c1ccc2c(c1)OCO2)c1ccc(Cl)c(Cl)c1 [Compound 10] | 138 ± 2 | 180 (≈ 57.8 µg/mL) | – | – | > 50 | 72.2 (≈ 23.2 µg/mL) | – | 23 | – | – | – | 23.11 | – | – | 180.62
O=C(/C=C/c1ccccc1F)c1ccc(Cl)c(Cl)c1 [Compound 4] | 393 ± 2 | 54.2 (≈ 16 µg/mL) | – | – | > 50 | 84.7 (≈ 25 µg/mL) | – | 27.1 | – | – | – | – | – | – | –
O=C(/C=C/c1ccncc1)c1ccc(Cl)c(Cl)c1 [Compound 13] | 209 ± 2 | 113 (≈ 31.4 µg/mL) | – | – | > 50 | 45.1 (≈ 12.5 µg/mL) | – | 57.8 | – | – | – | – | – | – | –
NC(=O)c1cnccn1 [Pyrazinamide, reference compound] | – | – | – | – | – | 25.3 (≈ 3.12 µg/mL) | – | – | – | – | – | – | – | – | –
